# Test results: ChEMBL document CHEMBL1201862, “PubChem BioAssay data set” (2004)
# Values joined by “and” are separate entries in the source; they are usually repeats but may differ in a detail not shown here. Equal values may be shown once. Active and inactive are the calls of the source.
# How the values were obtained:
# Protein RecA = molecular target: T1, Protein RecA (Mycobacterium tuberculosis, UniProt P9WHJ3); assay: Fluorescence Cell-Free Homogeneous Dose Retest to Identify Inhibitors of RecA-Intein Splicing Activity. [Related pubchem assays (depositor defined):AID2097, AID2223, AID489010, AID492950]; type: functional
# T1 sequence (P9WHJ3 whole entry): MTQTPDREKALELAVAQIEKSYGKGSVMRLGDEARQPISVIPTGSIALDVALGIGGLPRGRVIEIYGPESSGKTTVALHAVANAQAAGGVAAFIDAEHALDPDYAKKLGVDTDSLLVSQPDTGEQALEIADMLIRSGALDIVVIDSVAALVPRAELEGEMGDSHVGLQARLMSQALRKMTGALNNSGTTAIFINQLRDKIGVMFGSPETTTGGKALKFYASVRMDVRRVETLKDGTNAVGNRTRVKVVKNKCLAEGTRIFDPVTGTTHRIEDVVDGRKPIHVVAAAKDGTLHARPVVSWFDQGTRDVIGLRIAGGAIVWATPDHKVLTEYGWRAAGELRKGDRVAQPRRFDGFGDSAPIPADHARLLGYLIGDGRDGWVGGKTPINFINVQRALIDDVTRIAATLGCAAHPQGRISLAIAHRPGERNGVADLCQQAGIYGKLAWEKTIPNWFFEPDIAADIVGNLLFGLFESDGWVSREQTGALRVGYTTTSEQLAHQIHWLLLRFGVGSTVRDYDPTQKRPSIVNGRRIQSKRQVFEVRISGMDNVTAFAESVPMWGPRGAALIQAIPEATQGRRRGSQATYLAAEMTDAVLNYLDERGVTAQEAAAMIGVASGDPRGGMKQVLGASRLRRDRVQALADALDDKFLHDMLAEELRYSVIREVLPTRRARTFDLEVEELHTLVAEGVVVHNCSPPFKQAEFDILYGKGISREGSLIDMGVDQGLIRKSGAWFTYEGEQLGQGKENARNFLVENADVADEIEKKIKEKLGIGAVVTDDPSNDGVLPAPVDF
# [1] = molecular target: T2, Replicative DNA helicase DnaB (Mycobacterium tuberculosis, UniProt P9WMR3); assay: DnaB intein splicing inhibitors, dose response, biochemical, cell-free fluorescence (AID 449749); type: functional
# T2 sequence (P9WMR3 whole entry): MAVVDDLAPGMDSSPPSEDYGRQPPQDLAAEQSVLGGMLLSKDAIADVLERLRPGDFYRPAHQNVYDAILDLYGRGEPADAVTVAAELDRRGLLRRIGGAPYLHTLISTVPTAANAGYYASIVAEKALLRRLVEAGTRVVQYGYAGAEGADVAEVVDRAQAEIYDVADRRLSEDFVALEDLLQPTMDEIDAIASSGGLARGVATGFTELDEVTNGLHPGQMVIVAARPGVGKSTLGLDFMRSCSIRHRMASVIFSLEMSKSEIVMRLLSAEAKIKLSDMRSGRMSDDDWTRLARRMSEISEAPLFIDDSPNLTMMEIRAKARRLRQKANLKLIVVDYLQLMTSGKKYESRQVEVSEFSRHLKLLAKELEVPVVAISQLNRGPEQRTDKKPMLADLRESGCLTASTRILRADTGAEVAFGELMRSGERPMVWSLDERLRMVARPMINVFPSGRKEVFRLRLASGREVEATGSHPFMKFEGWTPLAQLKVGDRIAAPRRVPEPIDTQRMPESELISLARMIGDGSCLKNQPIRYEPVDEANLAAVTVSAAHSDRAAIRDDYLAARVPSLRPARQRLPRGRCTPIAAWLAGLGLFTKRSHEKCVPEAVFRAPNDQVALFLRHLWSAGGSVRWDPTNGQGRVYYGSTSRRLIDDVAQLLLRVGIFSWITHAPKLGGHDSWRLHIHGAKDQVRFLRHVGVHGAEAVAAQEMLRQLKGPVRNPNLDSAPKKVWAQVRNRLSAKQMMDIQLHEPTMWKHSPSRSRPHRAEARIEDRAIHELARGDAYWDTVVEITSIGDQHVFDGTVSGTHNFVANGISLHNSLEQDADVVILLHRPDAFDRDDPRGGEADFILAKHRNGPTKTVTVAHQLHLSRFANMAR
# cells = type: functional
# [2] = molecular target: T3, Zinc finger protein mex-5 (Caenorhabditis elegans, UniProt Q9XUB2); assay: MEX-5/TCR-2 RNA interaction inhibitors, dose response, biochemical, C. elegans, fluorescence polarization (AID 1960)
# T3 sequence (Q9XUB2 whole entry): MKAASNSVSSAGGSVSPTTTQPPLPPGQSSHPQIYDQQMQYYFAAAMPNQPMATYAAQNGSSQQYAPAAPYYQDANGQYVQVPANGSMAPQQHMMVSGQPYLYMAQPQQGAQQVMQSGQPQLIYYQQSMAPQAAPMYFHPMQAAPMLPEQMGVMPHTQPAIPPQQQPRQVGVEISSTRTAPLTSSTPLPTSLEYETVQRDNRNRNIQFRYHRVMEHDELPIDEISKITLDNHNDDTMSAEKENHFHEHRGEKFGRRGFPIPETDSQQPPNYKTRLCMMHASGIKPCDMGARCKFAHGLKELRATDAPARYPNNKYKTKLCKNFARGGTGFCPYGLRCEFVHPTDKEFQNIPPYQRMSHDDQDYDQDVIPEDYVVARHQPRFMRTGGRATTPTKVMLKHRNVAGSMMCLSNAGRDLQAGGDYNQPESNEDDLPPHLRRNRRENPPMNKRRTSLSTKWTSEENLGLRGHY
# [3] = molecular target: T4, RNA-binding protein pos-1 (Caenorhabditis elegans, UniProt G5EF15); assay: inhibitors of POS-1/mex-3 RNA binding, dose response, biochemical, fluorescence polarization (AID 1964);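 also: purified POS-1 fused to maltose binding protein made in E. coli; potency of compounds blocking POS-1 binding to fluorescent RNA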
# T4 sequence (G5EF15 whole entry): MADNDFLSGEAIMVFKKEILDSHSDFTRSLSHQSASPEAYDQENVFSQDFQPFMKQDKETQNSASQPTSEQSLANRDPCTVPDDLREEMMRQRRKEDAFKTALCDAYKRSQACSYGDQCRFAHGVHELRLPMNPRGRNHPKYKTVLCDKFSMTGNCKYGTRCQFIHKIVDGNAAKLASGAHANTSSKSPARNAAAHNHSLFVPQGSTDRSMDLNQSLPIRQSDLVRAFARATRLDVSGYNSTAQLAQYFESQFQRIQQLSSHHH
# Cytochrome P450 2D6 = Cytochrome P450 2D6 (Homo sapiens, UniProt P10635);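 also: CYP2D6 member of a cytochrome P450 panel assay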
# Sequence of Cytochrome P450 2D6 (P10635 whole entry): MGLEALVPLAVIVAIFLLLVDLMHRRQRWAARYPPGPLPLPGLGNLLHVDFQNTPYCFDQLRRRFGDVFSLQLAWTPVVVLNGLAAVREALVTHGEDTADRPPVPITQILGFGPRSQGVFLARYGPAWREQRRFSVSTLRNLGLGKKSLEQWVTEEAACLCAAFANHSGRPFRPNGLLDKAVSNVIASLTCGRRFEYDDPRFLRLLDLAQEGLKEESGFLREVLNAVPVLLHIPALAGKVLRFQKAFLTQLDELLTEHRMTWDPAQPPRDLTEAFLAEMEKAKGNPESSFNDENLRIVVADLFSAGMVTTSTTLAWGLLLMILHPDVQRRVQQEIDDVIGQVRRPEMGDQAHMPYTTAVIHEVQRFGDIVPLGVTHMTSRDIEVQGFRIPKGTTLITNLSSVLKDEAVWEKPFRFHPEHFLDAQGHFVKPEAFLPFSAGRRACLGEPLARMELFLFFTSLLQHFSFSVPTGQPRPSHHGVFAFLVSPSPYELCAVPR
# [4] = tested on: Streptococcus sp. 'group A'; assay: growth inhibition of control SK(-) GAS strain, dose response, counter-screen for streptokinase expression inhibitor project, luminescence, kanamycin, BacTiterGlo, confirmation (AID 1900); type: functional, organism-based
# Streptokinase A = molecular target: T5, Streptokinase A (Streptococcus pyogenes serotype M1, UniProt P10520); assay: S. pyogenes streptokinase expression inhibitors, potency, dose response, plasminogen activation absorbance, OD405 (AID 1914); type: functional, Streptococcus pyogenes M1 GAS;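 also: secreted streptokinase activity via plasminogen activation per viability signal from cell pellet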
# T5 sequence (P10520 whole entry): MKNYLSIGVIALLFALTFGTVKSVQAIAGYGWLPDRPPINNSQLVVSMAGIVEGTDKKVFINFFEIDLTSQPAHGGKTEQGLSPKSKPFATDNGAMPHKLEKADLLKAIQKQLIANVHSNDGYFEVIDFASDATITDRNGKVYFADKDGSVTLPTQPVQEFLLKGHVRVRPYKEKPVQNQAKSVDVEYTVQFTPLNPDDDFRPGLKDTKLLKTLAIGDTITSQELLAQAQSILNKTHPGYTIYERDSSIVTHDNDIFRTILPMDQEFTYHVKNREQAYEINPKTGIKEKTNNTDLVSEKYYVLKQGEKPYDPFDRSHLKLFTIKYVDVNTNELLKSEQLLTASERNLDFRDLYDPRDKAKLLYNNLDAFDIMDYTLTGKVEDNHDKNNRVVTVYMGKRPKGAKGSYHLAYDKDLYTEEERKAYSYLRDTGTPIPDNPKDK
# Streptococcus = assay: Group A Streptococcus viability loss, dose response, counter-screen for streptokinase expression inhibitor project, luminescence, BacTiterGlo (AID 1915); type: functional, organism-based;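 also: potency for reduction of bacterial viability or growth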
# Cytochrome P450 2C9 = Cytochrome P450 2C9 (Homo sapiens, UniProt P11712)
# Sequence of Cytochrome P450 2C9 (P11712 whole entry): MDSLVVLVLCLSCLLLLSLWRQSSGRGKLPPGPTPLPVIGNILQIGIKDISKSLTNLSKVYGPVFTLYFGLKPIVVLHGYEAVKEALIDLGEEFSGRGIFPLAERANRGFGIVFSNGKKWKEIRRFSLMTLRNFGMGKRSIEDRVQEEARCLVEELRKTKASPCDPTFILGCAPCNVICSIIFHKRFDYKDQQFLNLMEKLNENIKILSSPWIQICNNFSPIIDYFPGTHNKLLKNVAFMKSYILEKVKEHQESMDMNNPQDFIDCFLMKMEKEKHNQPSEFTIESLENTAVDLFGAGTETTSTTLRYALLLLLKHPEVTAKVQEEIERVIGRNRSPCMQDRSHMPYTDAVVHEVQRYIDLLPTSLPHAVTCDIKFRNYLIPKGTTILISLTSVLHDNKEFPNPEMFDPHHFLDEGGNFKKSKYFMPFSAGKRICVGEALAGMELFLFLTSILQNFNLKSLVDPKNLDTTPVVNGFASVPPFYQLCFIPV
# Cytochrome P450 1A2 = molecular target: T6, Cytochrome P450 1A2 (Homo sapiens, UniProt P05177);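 also: PubChem cytochrome P450 panel assay, CYP1A2 panel member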
# T6 sequence (P05177 whole entry): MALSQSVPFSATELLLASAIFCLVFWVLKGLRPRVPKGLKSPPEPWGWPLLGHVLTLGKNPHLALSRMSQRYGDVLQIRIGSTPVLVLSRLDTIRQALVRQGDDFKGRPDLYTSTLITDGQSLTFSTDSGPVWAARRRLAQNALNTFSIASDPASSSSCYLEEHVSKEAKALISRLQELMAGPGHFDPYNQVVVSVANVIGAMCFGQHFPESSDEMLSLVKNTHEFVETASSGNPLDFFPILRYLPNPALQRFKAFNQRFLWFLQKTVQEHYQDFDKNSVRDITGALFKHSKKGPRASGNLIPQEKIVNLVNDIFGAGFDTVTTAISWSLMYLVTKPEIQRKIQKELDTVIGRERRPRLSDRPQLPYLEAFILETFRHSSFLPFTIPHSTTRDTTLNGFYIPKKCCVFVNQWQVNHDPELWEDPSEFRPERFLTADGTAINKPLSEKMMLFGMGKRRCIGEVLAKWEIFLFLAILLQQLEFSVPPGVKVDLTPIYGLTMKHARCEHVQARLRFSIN
compound,measurement,setting,value
CCn1nc(C)c(C2C(C#N)=C(N)Oc3[nH]nc(C)c32)c1C (stereo not drawn),EC50,Protein RecA,12.5 µM (active)
same,AC50,[1],88.9 µM (active)
Cc1ccc2oc(=O)c3cc(C(=O)NCCCN4CCCCCC4)sc3c2c1,IC50,cells,> 50 µM (active)
CSCC(C)N1CCC(N2CCC(C(=O)NCc3ccccn3)CC2)CC1 (stereo not drawn),EC50,[2],> 300 µM (not active)
same,EC50,[3],161 µM (active)
COC(=O)COc1ccc2c(=O)c(-c3ccccc3)coc2c1,IC50,cells,< 0.1 µM (active)
COc1ccccc1-c1cc(Nc2ccc(F)cc2)ncn1,AC50,Cytochrome P450 2D6,39.8 µM (inconclusive)
CCCCCC(=O)Nc1cccc(-c2nc3ncccc3o2)c1,AC50,Cytochrome P450 2D6,22.4 µM (inconclusive)
COc1cccc(C(=O)OCC(=O)Nc2nnc(-c3ccccc3)o2)c1,EC50,[4],7.55 µM (active)
same,EC50,Streptokinase A,> 150 µM (not active)
same,EC50,Streptococcus,60.9 µM (active)
same,IC50,cells,14.8 µM (active)
"COc1ccc2c(c1OC)C(=O)O[C@H]2[C@H]1c2cc3c(cc2CCN1C)OCO3 [1R,9S-HYDRASTINE]",AC50,Cytochrome P450 2C9,1.58 nM (inconclusive) and 15.8 µM (inconclusive)
N#Cc1ccccc1-c1ccc2ncnc(NCCN3CCOCC3)c2c1,AC50,Cytochrome P450 2D6,39.8 µM (inconclusive)
CCCC(CCC)C(=O)NNc1cc(O)c2c(=O)n(C)c(=O)n(C)c2n1,AC50,Cytochrome P450 2C9,0.178 µM (inconclusive)
CC1C(=O)NN=C1C(=O)N/N=C/c1ccco1 (stereo not drawn),EC50,[2],> 300 µM (not active)
same,EC50,[3],> 300 µM (not active)
CCN1C=CC2=C(C#N)C(N)C(C#N)(C#N)C(c3ccccc3C(F)(F)F)C2C1 (stereo not drawn),EC50,[2],> 300 µM (not active)
same,EC50,[3],260 µM (inconclusive)
Cc1ccccc1CSCCN=C(S)Nc1ccccc1,EC50,[2],> 300 µM (not active)
same,EC50,[3],> 300 µM (not active)
Cc1c(NC(=O)C(Sc2ccccc2)c2ccccc2)cccc1[N+](=O)[O-] (stereo not drawn),AC50,Cytochrome P450 2D6,3.16 µM (inconclusive)
CCc1c2c(nc3cccc(SC)c13)COC2,AC50,Cytochrome P450 2D6,39.8 µM (inconclusive)
O=C1c2ccccc2C(=O)N1CCCCN(C(=O)c1ccc([N+](=O)[O-])cc1)c1ccc(Cl)cc1,AC50,Cytochrome P450 2D6,15.8 µM (inconclusive)
Cc1ccccc1OCCN=C(S)Nc1ccccc1,AC50,Cytochrome P450 1A2,3.16 µM (inconclusive)
same,AC50,Cytochrome P450 2C9,10 µM (inconclusive)
c1ccc(CN2CCC3(CCNCC3)CC2)cc1,AC50,Cytochrome P450 2C9,25.1 µM (inconclusive)
CCCc1nc(SCC(=O)N2CCc3ccccc3C2)c2ccccc2n1,EC50,Protein RecA,14.6 µM (active)
same,AC50,[1],14.1 µM (active)
O=C(O)c1cc(Cl)c2c(c1)[C@@H]1C=CC[C@@H]1[C@H](c1ccc(S(=O)(=O)N3CCOCC3)cc1)N2,EC50,[2],29.7 µM (active)
same,EC50,[3],> 300 µM (not active)
CN(C)/C=C/C(=O)c1ccc2noc(-c3ccc(F)cc3)c2c1,EC50,Protein RecA,> 380 µM (inactive)
same,AC50,[1],> 380 µM (inactive)
Cc1cccc(NC(=O)COC(=O)CCc2c[nH]c3ccccc23)c1,IC50,cells,0.71 µM (active)
CC1(CCl)[N+]([O-])=C2CCCCC2=[N+]1[O-],EC50,[2],121 µM (active)
same,EC50,[3],> 300 µM (not active)
CC1(C)N=C(SCC(=O)Nc2ccc(Cl)cc2Cl)C(c2ccccc2)=N1,EC50,Protein RecA,17.7 µM (active)
same,AC50,[1],10.7 µM (active)
Cc1cc(NCc2ccccn2)ccc1Br,AC50,Cytochrome P450 2C9,7.08 µM (inconclusive)
N#CC(C(=O)NCc1ccco1)c1nc2ccccc2nc1N1CCOCC1 (stereo not drawn),IC50,cells,49 µM (active)
CC[C@H](C)C(=O)O[C@H]1CCC=C2C=C[C@H](C)[C@H](CC[C@@H]3C[C@H](O)CC(=O)O3)[C@H]21,AC50,Cytochrome P450 1A2,31.6 µM (inconclusive)
same,AC50,Cytochrome P450 2D6,31.6 µM (inconclusive)
O=C(C/C=N/OCc1ccc(Cl)cc1Cl)c1ccc(Cl)cc1,AC50,Cytochrome P450 2C9,17.8 µM (inconclusive)
same,AC50,Cytochrome P450 2D6,17.8 µM (inconclusive)
O=S(=O)(Nc1cccnc1Cl)c1ccc2c(c1)OCCO2,AC50,Cytochrome P450 2C9,15.8 µM (inconclusive)
C/C(=N/Nc1ccc2ccccc2n1)c1ccccc1O,AC50,Cytochrome P450 2C9,2.51 µM (inconclusive)
O=C(Cc1ccccc1)NNC(=O)c1cnccn1,EC50,[2],41.4 µM (active)
same,EC50,[3],> 300 µM (not active)
